Data on nine molecules can be found in paper PMC10786919, “Design-rules for stapled peptides with in vivo activity and their application to Mdm2/X antagonists” (Nature Communications, 2024).

A word on the pEC50: it is the EC50 on a negative log10 scale, so that one unit is a factor of ten. Usually logD stands for lipophilicity at a set pH, counting ionised and neutral species.

pEC50: −log10 of the molar value. ≈ marks a conversion by molar mass, not a printed value. Where two headings read alike, the source gives them in different places. Positions of bridges follow the written chain, without caps; N, C: chain ends. Non-standard residues stand in square brackets, D forms with d. Residues, ends and D or L forms follow the SMILES beside them. ξ: configuration not given here. Lys(N3) = [N-]=[N+]=NCCCC[C@H](N)C(=O)O; R8 = C=CCCCCCC[C@@](C)(N)C(=O)O; ξαMeF = CC(N)(Cc1ccccc1)C(=O)O; Cba = N[C@@H](CC1CCC1)C(=O)O; S5 = C=CCCC[C@](C)(N)C(=O)O; hSer = N[C@@H](CCO)C(=O)O; Aib = CC(C)(N)C(=O)O; βAla = NCCC(=O)O Bounds are passed on as bounds.

One series concerns Ca Ski cell line. To be noted: 72 h. On the procedure:
(§1) The medium for CellSensor™ p53RE-bla HCT-116 cells was McCoy’s 5 A Medium (GIBCO16600-002) supplied with 10% FBS (Hyclone, SH30406.05), 100 U/100ug/ml of Pen/Strep (SolarBio, P1400) and 5 μg/ml of blasticidin (GIBCO, A11139). The medium for Ca Ski cells was RPMI1640 (Hyclone, SH3080901B) supplied with 10% FBS and 100 U/100ug/ml of Pen/Strep. All cells were kept in humidified incubators with 5% CO2 at 37 °C. Culture media was changed after one day of subculturing and cells were passed again when there was 70–80% confluence. One day before the assay, the cells were trypsinized, collected, counted and viability was determined. […] The plates were kept in humidified incubators with 5% CO2 at 37 °C overnight. Compounds were prepared as a 10 point, 3x serial dilution in 100% DMSO, starting from a top concentration of 10 mM. […] At the end of the incubation the assay plate was equilibrated at room temperature for approximately 30 minutes prior to the addition of 25 uL of CellTiter-Glo® 2.0 Reagent. The assay plate was mixed for 2 minutes on an orbital shaker to induce cell lysis. Next, the plate was incubated at room temperature for 10 minutes to stabilize the luminescent signal prior to recording the luminescence on a plate reader.

Series [1] has as its system CellSensor p53RE-bla HCT-116 Cell Line. The conditions noted are these: 72 h. On the procedure:
as §1

A short description of series [2]: Experimental LogD (partition coefficient). The conditions noted are these: for logD: not stated, Partition Coeff LogD.
The next series in a line: in vitro. To be noted: Nanoclick permeability assay EC50. In a few lines: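 Azido-peptide permeability was read as loss of NanoBRET signal (donor 450 nm, acceptor 610 nm) after adding NanoBret618-azide at 10 μM final.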
Series [3] is described as follows: Lactate dehydrogenase (LDH) release assay. The format is cell-based. In a few lines: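 A p53 β-lactamase reporter HCT116 line, 8000 cells per well, is exposed to test compounds at 0.5% final DMSO and scored for LDH leakage.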
Series [4] is described as follows: Solubility assay (kinetic solubility, PBS pH 7). Format: physicochemical. In a few lines: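 Std: 10 mM stock → 100 µM in ACN/MeOH/DMSO (10:80:10). Sol. [µM] = (sample peak area / std peak area) × std conc.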
Setting [5] is: pH 7, aqueous buffer, kinetic from dmso stock, pH 7, PBS, read-out: Solubility.

Turning to `CC(=O)N[C@@H](CCCCN=[N+]=[N-])C(=O)NCCC(=O)N[C@@H](CC(C)C)C(=O)N[C@H](C(=O)N[C@@H](Cc1ccccc1)C(=O)N[C@]1(C)CCCCCCC=CCCC[C@@](C)(C(=O)N[C@@H](C)C(=O)N[C@H](C)C(=O)N[C@@H](C)C(=O)N[C@H](C)C(=O)N[C@@H](C)C(=O)N[C@H](C)C(N)=O)NC(=O)[C@H](CC2CCC2)NC(=O)[C@H](CCC(N)=O)NC(=O)[C@H](C)NC(=O)[C@H](Cc2c[nH]c3ccccc23)NC(=O)[C@H](Cc2ccc(O)cc2)NC(=O)[C@H](CCC(=O)O)NC1=O)[C@@H](C)O` [MP-056] (Ac-[Lys(N3)][βAla]LTF[R8]EYWAQ[Cba][S5]A[dA]A[dA]A[dA]-NH2; staple 6-13), the pEC50 is less than 4.30 in the series on Ca Ski cell line, 5.48 in series [1] and less than 4.29 in series [3] (LDH: Cytotoxicity assay: EC50). For the same molecule, the logD in series [2] amounted to 2.83. For the same molecule, the cell entry EC50 in the series “in vitro” was determined as 5.21 µM. Further, the solubility kinetic came to 157 µM (≈ 340 µg/mL) in series [4] (pH 7, Solubility) and 147 µM (≈ 319 µg/mL) in series [4] (setting [5]).

Regarding `CC(=O)N[C@@H](CCCCN=[N+]=[N-])C(=O)NCCC(=O)N[C@@H](CC(C)C)C(=O)N[C@H](C(=O)N[C@@H](Cc1ccccc1)C(=O)N[C@]1(C)CCCCCCC=CCCC[C@@](C)(C(=O)N[C@@H](C)C(=O)N[C@@H](C)C(=O)N[C@@H](Cc2ccccc2)C(=O)N[C@@H](C)C(=O)N[C@@H](C)C(=O)NC(C)(Cc2ccccc2)C(N)=O)NC(=O)[C@H](CC2CCC2)NC(=O)[C@H](CCC(N)=O)NC(=O)[C@H](C)NC(=O)[C@H](Cc2c[nH]c3ccccc23)NC(=O)[C@H](Cc2ccc(O)cc2)NC(=O)[C@H](CCC(=O)O)NC1=O)[C@@H](C)O` (stereo partly shown) [MP-288] (Ac-[Lys(N3)][βAla]LTF[R8]EYWAQ[Cba][S5]AAFAA[ξαMeF]-NH2; staple 6-13), the results for the pEC50 (in the series on Ca Ski cell line; in series [1]; in series [3] (LDH: Cytotoxicity assay: EC50)) were less than 4.30, 5.56 and less than 4.29, respectively. The logD in series [2] was found to be 4.11. In the series “in vitro”, the cell entry EC50 came out at 1.58 µM. In addition, the solubility kinetic in series [4] (setting [5]) turned out to be 12 µM (≈ 28 µg/mL).

Turning to `CC(=O)N[C@@H](CCCCN=[N+]=[N-])C(=O)NCCC(=O)N[C@@H](CC(C)C)C(=O)N[C@H](C(=O)N[C@@H](Cc1ccccc1)C(=O)N[C@]1(C)CCCCCCC=CCCC[C@@](C)(C(=O)N[C@@H](C)C(=O)N[C@@H](C)C(=O)N[C@H](C)C(=O)N[C@@H](C)C(=O)N[C@@H](C)C(=O)N[C@H](C)C(N)=O)NC(=O)[C@H](CC2CCC2)NC(=O)[C@H](CCC(N)=O)NC(=O)[C@H](C)NC(=O)[C@H](Cc2c[nH]c3ccccc23)NC(=O)[C@H](Cc2ccc(O)cc2)NC(=O)[C@H](CCC(=O)O)NC1=O)[C@@H](C)O` [MP-425] (Ac-[Lys(N3)][βAla]LTF[R8]EYWAQ[Cba][S5]AA[dA]AA[dA]-NH2; staple 6-13), the pEC50 with Ca Ski cell line was 4.32; in series [1] it was 5.90; in series [3] (LDH: Cytotoxicity assay EC50) it was less than 4.29. Besides, the solubility kinetic in series [4] (setting [5]) was 185 µM (≈ 401 µg/mL).

`CC(=O)N[C@@H](CCCCN=[N+]=[N-])C(=O)NCCC(=O)N[C@@H](CC(C)C)C(=O)N[C@H](C(=O)N[C@@H](Cc1ccccc1)C(=O)N[C@]1(C)CCCCCCC=CCCC[C@@](C)(C(=O)N[C@@H](C)C(=O)N[C@@H](C)C(=O)N[C@@H](C)C(=O)N[C@@H](C)C(=O)N[C@@H](C)C(N)=O)NC(=O)[C@H](CC2CCC2)NC(=O)[C@H](CCC(N)=O)NC(=O)[C@H](C)NC(=O)[C@H](Cc2c[nH]c3ccccc23)NC(=O)[C@H](Cc2ccc(O)cc2)NC(=O)[C@H](CCC(=O)O)NC1=O)[C@@H](C)O` [MP-685] (Ac-[Lys(N3)][βAla]LTF[R8]EYWAQ[Cba][S5]AAAAA-NH2; staple 6-13): the negative-log EC50 (pEC50) in the series with Ca Ski cell line is 4.64; in series [1], 5.02; in series [3] (LDH: Cytotoxicity assay EC50), less than 4.29. For the same molecule, the cell entry EC50 in “in vitro” is greater than 10 µM.

Turning to `CC(=O)N[C@@H](CCCCN=[N+]=[N-])C(=O)NCCC(=O)N[C@@H](CC(C)C)C(=O)N[C@H](C(=O)N[C@@H](Cc1ccccc1)C(=O)N[C@]1(C)CCCCCCC=CCCC[C@@](C)(C(=O)N[C@@H](C)C(=O)N[C@@H](C)C(=O)N[C@@H](C)C(=O)N[C@@H](C)C(=O)N[C@@H](C)C(=O)N[C@@H](C)C(=O)N[C@@H](C)C(=O)N[C@@H](C)C(=O)N[C@@H](C)C(N)=O)NC(=O)[C@H](CC2CCC2)NC(=O)[C@H](CCC(N)=O)NC(=O)[C@H](C)NC(=O)[C@H](Cc2c[nH]c3ccccc23)NC(=O)[C@H](Cc2ccc(O)cc2)NC(=O)[C@H](CCC(=O)O)NC1=O)[C@@H](C)O` [MP-759] (Ac-[Lys(N3)][βAla]LTF[R8]EYWAQ[Cba][S5]AAAAAAAAA-NH2; staple 6-13), the negative logarithm of the EC50 (pEC50) is 4.59 with Ca Ski cell line, 5.61 in series [1] and less than 4.29 in series [3] (LDH: Cytotoxicity assay: EC50). This molecule also showed a logD in series [2] of 3.49. Besides, the cell entry EC50 in the series “in vitro” was determined as 3.41 µM. The solubility kinetic in series [4] (setting [5]) came out at 15 µM (≈ 35.7 µg/mL).

Consider `CC(=O)N[C@@H](CCCCN=[N+]=[N-])C(=O)NCCC(=O)N[C@@H](CC(C)C)C(=O)N[C@H](C(=O)N[C@@H](Cc1ccccc1)C(=O)N[C@]1(C)CCCCCCC=CCCC[C@@](C)(C(=O)N[C@@H](C)C(=O)N[C@@H](C)C(=O)N[C@@H](Cc2ccccc2)C(=O)NC(C)(C)C(=O)N[C@@H](C)C(=O)N[C@@H](C)C(N)=O)NC(=O)[C@H](CC2CCC2)NC(=O)[C@H](CCC(N)=O)NC(=O)[C@H](C)NC(=O)[C@H](Cc2c[nH]c3ccccc23)NC(=O)[C@H](Cc2ccc(O)cc2)NC(=O)[C@H](CCC(=O)O)NC1=O)[C@@H](C)O` [MP-801] (Ac-[Lys(N3)][βAla]LTF[R8]EYWAQ[Cba][S5]AAF[Aib]AA-NH2; staple 6-13), for which the figures for the pEC50 (in the series with Ca Ski cell line; in series [1]) were 4.72 and 5.34, respectively. Also, in series [2], the “Partition Coeff LogD” value is given as “Poorly Behaved”. Further, the cell entry EC50 in “in vitro” turned out to be 4.71 µM. The Solubility entry in series [4] (pH 7, PBS) is listed as “Poorly Behaved”.

Consider `CC(=O)N[C@@H](CCCCN=[N+]=[N-])C(=O)NCCC(=O)N[C@@H](CC(C)C)C(=O)N[C@H](C(=O)N[C@@H](Cc1ccccc1)C(=O)N[C@]1(C)CCCCCCC=CCCC[C@@](C)(C(=O)N[C@@H](CCO)C(=O)N[C@@H](CCO)C(=O)N[C@@H](Cc2ccccc2)C(=O)N[C@@H](CCO)C(=O)N[C@@H](CCO)C(=O)N[C@@H](Cc2ccccc2)C(N)=O)NC(=O)[C@H](CC2CCC2)NC(=O)[C@H](CCC(N)=O)NC(=O)[C@H](C)NC(=O)[C@H](Cc2c[nH]c3ccccc23)NC(=O)[C@H](Cc2ccc(O)cc2)NC(=O)[C@H](CCC(=O)O)NC1=O)[C@@H](C)O` [MP-802], for which the pEC50 is 5.34 in series [1] and less than 4.29 in series [3] (LDH: Cytotoxicity assay EC50). Further, the pH-dependent lipophilicity (logD) in series [2] turned out to be 3.08. In the series “in vitro”, the cell entry EC50 came to 9.16 µM. In addition, the Solubility entry in series [4] is reported as “P.B”.

For `CC(=O)N[C@@H](CCCCN=[N+]=[N-])C(=O)NCCC(=O)N[C@@H](CC(C)C)C(=O)N[C@H](C(=O)N[C@@H](Cc1ccccc1)C(=O)N[C@]1(C)CCCCCCC=CCCC[C@@](C)(C(=O)N[C@@H](C)C(=O)N[C@@H](CCO)C(=O)N[C@@H](C)C(=O)N[C@@H](C)C(=O)N[C@@H](C)C(=O)N[C@H](C)C(N)=O)NC(=O)[C@H](CC2CCC2)NC(=O)[C@H](CCC(N)=O)NC(=O)[C@H](C)NC(=O)[C@H](Cc2c[nH]c3ccccc23)NC(=O)[C@H](Cc2ccc(O)cc2)NC(=O)[C@H](CCC(=O)O)NC1=O)[C@@H](C)O` [MP-831] (Ac-[Lys(N3)][βAla]LTF[R8]EYWAQ[Cba][S5]A[hSer]AAA[dA]-NH2; staple 6-13), the pEC50 was less than 4.30 with Ca Ski cell line, 6.37 in series [1] and less than 4.29 in series [3] (LDH: Cytotoxicity assay EC50). The logD in series [2] was found to be 3.13. Also, the cell entry EC50 in the series “in vitro” was greater than 10 µM. In series [4] (setting [5]), the solubility kinetic stood at 175 µM (≈ 385 µg/mL).

Consider `CC(=O)N[C@@H](CCCCN=[N+]=[N-])C(=O)NCCC(=O)N[C@@H](CC(C)C)C(=O)N[C@H](C(=O)N[C@@H](Cc1ccccc1)C(=O)N[C@]1(C)CCCCCCC=CCCC[C@@](C)(C(=O)N[C@@H](CCC(=O)O)C(=O)N[C@@H](C)C(=O)N[C@@H](Cc2ccccc2)C(=O)N[C@@H](C)C(=O)N[C@@H](CCC(N)=O)C(=O)N[C@@H](Cc2ccccc2)C(N)=O)NC(=O)[C@H](CC2CCC2)NC(=O)[C@H](CCC(N)=O)NC(=O)[C@H](C)NC(=O)[C@H](Cc2c[nH]c3ccccc23)NC(=O)[C@H](Cc2ccc(O)cc2)NC(=O)[C@H](CCC(=O)O)NC1=O)[C@@H](C)O` [MP-832] (Ac-[Lys(N3)][βAla]LTF[R8]EYWAQ[Cba][S5]EAFAQF-NH2; staple 6-13), for which the pEC50 with Ca Ski cell line was 4.65; in series [1] it was 5.38; in series [3] (LDH: Cytotoxicity assay EC50), less than 4.29. The same molecule gave a log distribution coefficient (logD) in series [2] of 3.01. Besides, the cell entry EC50 in the series “in vitro” is 4.88 µM. In series [4] (setting [5]), the solubility kinetic came to 157 µM (≈ 382 µg/mL).
